According to US20050026933A1, “Use of a combination of an epidermal growth factor receptor kinase inhibitor and cytotoxic agents for treatment and inhibition of cancer” (Wyeth Holdings Corporation, priority 2003, published 2005):

Experiments:
[1] = tested on: GEO colon carcinoma cells; experiment: GEO colon carcinoma xenograft in athymic nu/nu mice; assay type: in vivo, human; conditions: for RTG (Relative Tumor Growth): EKB-569 80 mg/kg PO, paclitaxel 25 mg/kg IV
Description: (§1) In all of the experiments, athymic nu/nu female mice (Charles River Laboratories) were injected SC (subcutaneously) with either 7×10^6 or 1×10^7 LoVo colon carcinoma cells or 5×10^6 GEO colon carcinoma cells. When tumors attained a mass of between 80 and 120 mg (Day 0), animals were randomized into treatment groups each containing between 5 and 20 animals, (dependent upon the experiment). Mice were treated orally (PO) with EKB-569 or vehicle control for 15 to 20 days, depending upon the experiment. EKB-569 was formulated in 0.5% Methocel, 0.4% Tween 80. Cytotoxic agents, (paclitaxel, 5-FU and cisplatin), were given either by […] (IP) or intravenous (IV) administration on either days 1, 5 and 9 or on days 1, 5, 9 and 13, depending upon the experiment. Tumor mass ([Length×Width^2]/2) was determined every seven days post staging for up to 35 days. The relative tumor growth, (Mean tumor mass on day measured divided by the mean tumor mass on day zero), and the percent Tumor/Control, (% T/C), was then calculated for each treatment group for as long as the control group remained. The % T/C is defined as the Mean Relative Tumor Growth of the Treated Group divided by the Mean Relative Tumor Growth of Vehicle Control Group multiplied by 100. The data was analyzed via Student's one-tailed t-test. A p-value≦0.05 indicates a statistically significant reduction in relative tumor growth of treated group compared with the vehicle control group or drug treated group.
In the experiment of Table 1 (GEO), 80 mg/kg EKB-569 was administered PO for 15 consecutive days while 25 mg/kg paclitaxel was administered IV on days 1, 5, 9 and 13 (Table 1). The results obtained in this study were identical to that in the LoVo study except that there was up to 85% tumor growth inhibition seen in the group receiving combination therapy.
The activity of EKB-569 in combination with 5-FU was assessed in LoVo and GEO xenografts. In the LoVo experiment, 20 mg/kg EKB-569 was administered for 20 consecutive days while 40 mg/kg 5-FU was administered IP on days 1, 5, 9 and 13. In the GEO experiment, 80 mg/kg EKB-569 was administered PO for 15 consecutive days while 40 mg/kg 5-FU was administered IP on days 1, 5, 9 and 13. […] At all time points, tumor size was smaller in the combination group compared with the single agent groups in these experiments. […]

[2] = tested on: LoVo colon carcinoma cells; experiment: LoVo colon carcinoma xenograft in athymic nu/nu mice; assay type: in vivo, mouse xenograft of human tumor cells; conditions: 5-FU study LoVo, EKB-569 20 mg/kg PO days 1-20, 5-FU 40 mg/kg IP days 1, 5, 9, 13
Description: as §1
The activity of EKB-569 in combination with paclitaxel was assessed using the human colon carcinoma lines LoVo and GEO. In the LoVo experiment, 20 mg/kg EKB-569 was administered PO for 20 consecutive days. Twenty mg/kg paclitaxel prepared in 2% cremophor el and 2% ethanol was administered IV on days 1, 5, 9 and 13.
The activity of EKB-569 in combination with 5-FU was assessed in LoVo and GEO xenografts. In the LoVo experiment, 20 mg/kg EKB-569 was administered for 20 consecutive days while 40 mg/kg 5-FU was administered IP on days 1, 5, 9 and 13. In the GEO experiment, 80 mg/kg EKB-569 was administered PO for 15 consecutive days while 40 mg/kg 5-FU was administered IP on days 1, 5, 9 and 13. […] At all time points, tumor size was smaller in the combination group compared with the single agent groups in these experiments.
The activity of EKB-569 in combination with cisplatin was assessed in LoVo and GEO xenografts. In the LoVo study, 20 mg/kg EKB-569 was administered PO for 20 consecutive days while 3 mg/kg cisplatin was administered IP on days 1, 5 and 9. In the GEO experiment, 80 mg/kg EKB-569 was administered PO for 15 consecutive days while 3 mg/kg cisplatin was administered I P on days 1, 5, 9 and 13. In both these experiments, combination therapy gave statistically significant, (p≦0.05), tumor growth inhibition than either drug alone at 3 out of 4 time points examined.

[3] = paclitaxel study, Day 6, EKB-569 80 mg/kg PO days 1-15, paclitaxel 25 mg/kg IV days 1, 5, 9, 13
[4] = paclitaxel study, Day 15, EKB-569 80 mg/kg PO days 1-15, paclitaxel 25 mg/kg IV days 1, 5, 9, 13
[5] = 5-FU study GEO, Day 8, EKB-569 80 mg/kg PO days 1-15, 5-FU 40 mg/kg IP days 1, 5, 9, 13
[6] = 5-FU study GEO, Day 14, EKB-569 80 mg/kg PO days 1-15, 5-FU 40 mg/kg IP days 1, 5, 9, 13
[7] = 5-FU study GEO, Day 21, EKB-569 80 mg/kg PO days 1-15, 5-FU 40 mg/kg IP days 1, 5, 9, 13
[8] = 5-FU study GEO, Day 28, EKB-569 80 mg/kg PO days 1-15, 5-FU 40 mg/kg IP days 1, 5, 9, 13

Structure (SMILES): CC(=O)O[C@H]1C(=O)[C@@]2(C)[C@H]([C@H](OC(=O)c3ccccc3)[C@]3(O)C[C@H](OC(=O)[C@H](O)[C@@H](NC(=O)c4ccccc4)c4ccccc4)C(C)=C1C3(C)C)[C@]1(OC(C)=O)CO[C@@H]1C[C@@H]2O [Paclitaxel, paclitaxel]
- % T/C [1, 3]: 46%
- RTG (Relative Tumor Growth) ([1]; paclitaxel study, Day 6): 1.63
- % T/C [1, 4]: 43%
- RTG (Relative Tumor Growth) ([1]; paclitaxel study, Day 15): 2.69
- RTG (Relative Tumor Growth) ([1]; paclitaxel study, Day 21): 2.24
- RTG (Relative Tumor Growth) ([1]; paclitaxel study, Day 28): 2.70

Structure (SMILES): O=c1[nH]cc(F)c(=O)[nH]1 [5-FU, 5-Fluorouracil]
- % T/C ([2]; Day 7): 59%
- % T/C ([2]; Day 14): 63%
- % T/C ([2]; Day 21): 85%
- % T/C ([2]; Day 29): 77%
- % T/C [1, 5]: 58%
- % T/C [1, 6]: 47%
- % T/C [1, 7]: 50%
- % T/C [1, 8]: 60%

Structure (SMILES): CCOc1cc2ncc(C#N)c(Nc3ccc(F)c(Cl)c3)c2cc1NC(=O)C=CCN(C)C [EKB-569, 4-dimethylamino-but-2-enoic acid [4-(3-chloro-4-fluoro-phenylamino)-3-cyano-7-ethoxy-quinolin-6-yl]-amide]
- % T/C ([2]; Day 7): 84%
- % T/C ([2]; Day 14): 67%
- % T/C ([2]; Day 21): 77%
- % T/C ([2]; Day 29): 95%
- % T/C [1, 5]: 55%
- % T/C [1, 6]: 54%
- % T/C [1, 7]: 81%
- % T/C [1, 8]: 95%
- % T/C [1, 3]: 51%
- RTG (Relative Tumor Growth) ([1]; paclitaxel study, Day 6): 1.78
- % T/C [1, 4]: 53%
- RTG (Relative Tumor Growth) ([1]; paclitaxel study, Day 15): 3.33
- RTG (Relative Tumor Growth) ([1]; paclitaxel study, Day 21): 5.19
- RTG (Relative Tumor Growth) ([1]; paclitaxel study, Day 28): 5.78
